The values below are quoted from earlier work in patent publication US20030056236A1, “Model” (priority 2001, published 2003).

This data set relates to 5-HIAA levels. Conditions: after treatment; for elevate 5-HIAA levels: rat medial prefrontal cortex; for effect on 5-HIAA levels in the striatum: rat striatum.

For `Cc1nc2sccn2c(=O)c1CCN1CCC(=C(c2ccc(F)cc2)c2ccc(F)cc2)CC1` [ritanserin], the “elevate 5-HIAA levels” value was “to a lesser extent” and the “effect on 5-HIAA levels in the striatum” value is “no effect”.

On to `CCNC(=O)N1CCN(CCCC(c2ccc(F)cc2)c2ccc(F)cc2)CC1` [amperozide], for which the “elevate 5-HIAA levels” value was “elevate” and the “effect on 5-HIAA levels in the striatum” value is reported as “no effect”.

Regarding `Cc1nc2n(c(=O)c1CCN1CCC(c3noc4cc(F)ccc34)CC1)CCCC2` [Risperidone], the “elevate 5-HIAA levels” value is “elevate” and the “effect on 5-HIAA levels in the striatum” value was “no effect”.
